This is an account of results in patent publication US6255337A, “Anti-first-pass effect compounds and citrus extract” (Bioavailability Systems, L.L.C., priority 1999, dated 2001).

“Also recorded” adds a separate entry of the source. Read-outs that look alike come from different tables or passages of the source.

The subject of data set [1] is human cytochrome P450. Put plainly: Protocol C: Assessment of human cytochrome P450-mediated biotransformation (terfenadine, human hepatic S9). Format: in vitro ADME. The protocol:
The process of preparing incubation mixtures begins by mixing 10 uL of ethanol or an ethanolic solution containing an inhibitor with 100 uL of 100 mg/mL bovine serum albumin (Sigma) dissolved in reaction buffer at room temperature. Reaction buffer is composed of 0.10 M sodium phosphate, 1.0 mM ethylenediaminetetraacetic acid, and 5.0 mM magnesium chloride, pH 7.4 (all reagents: Fisher Scientific). Inhibitory chemicals used were ketoconazole (Research Diagnostics, Inc.), miconazole, bergapten, xanthotoxin (previous three from Sigma), bergamotin, imperatorin, isopimpinellin, psoralen, angelicin (previous five from Indofine Chemical Company, Inc.), and fractions or precipitates resulting from Protocols A and B above. When possible, final inhibitor concentrations were expressed in molarity by calculation from the weighed material or by interpolation from HPLC calibration curves prepared with reference materials; otherwise, concentrations are expressed as weight per volume. Reaction tubes are placed on ice in preparation for the manipulations that follow. Sufficient reaction buffer is added so that the final volume of each tube will be 500 uL, 5 uL of a 100-fold concentrate for generating reduced nicotinamide adenine dinucleotide phosphate is added (such that completed reaction mixture contains 1.0 mM nicotinamide adenine dinucleotide phosphate, 1 U/mL glucose-6-phosphate dehvdrogenase, and 10 mM glucose-6-phosphate; all from Sigma), and then human hiepatic S9 (Anatomic Gift Foundation) is thawed and added in sufficient amounts to cause readily detectable amounts of metabolites to be formed in control reactions (amount necessary varies among individuals, but 10 uL is typical).
The samples prepared above are readied for HPLC assessment using the protocol that follows. Each tube is vortex mixed and centrifuged for 10 min at setting 35, the resulting supernatant is transferred to a clean tube, and the liquid is evaporated using a Speed Vac apparatus. The residue in each tube is first dissolved in 40 uL 1:1 acetonitrile:water, 2.5 mL of acetonitrile is added, and the centrifuge-transfer-evaporate step just described is repeated.
The dry residue resulting from the above-described experiments and sample preparation protocol may be analyzed for terfienadine metabolites using the HPLC method described below and may also be used to quantitate the inhibitory chemicals that were added to the reaction (see Protocol B). Linear gradients are used for elution and are formed by mixing mobile phase A composed of water with mobile phase B composed of 0.025% (v/v) formic acid in acetonitrile (instrument: Hewlett Packard). The elution time, in minutes, the percentage of mobile phase B present in the mixed mobile phase, and the flow rate (mL/min) are as follows: 0, 10, 0.10; 2, 10, 0.10; 3.5, 10, 0.20; 4, 10, 0.25; 5, 10, 0.25; 30, 55, 0.25; 32, 98, 0.25; 33, 98, 0.40; 39.8, 98, 0.40; 40, 98, 0.25; 45, 10, 0.25; 45.25, 10, 0.20; 50, 10, 0.20; 50.25, 10, 0.10. The chromatographic column has dimensions of 150 mm length×2.1 mm internal diameter. is packed with a proprietary material (Prism, Keystone Scientific, Inc.), is protected with a 2 mm internal diameter column containing the same material and with a PTFE filter, and is maintained at 35+/-0.2 C. The dry sample residue is mixed with 60 uL of 1:1 acetonitrile:water followed by 40 uL water just prior to each 50.25 min run cycle. The column eluate from each 10 uL injection is monitored for fluorescence with excitation at 228 nm, emission at 291 nm, and bandpass filtration at 280 nm.

The conditions of data set [2]: in words; cited from earlier work.
The subject of data set [3] is first-pass effect. The conditions noted are these: orally administered drugs; in words; cited from earlier work.
In data set [4] the test system is first-pass effect of cyclosporin. Conditions: heart transplant patients, cyclosporin co-administered with ketoconazole; cited from earlier work.
Data set [5] concerns cytochrome P450. Conditions: given to humans in large doses; in words; cited from earlier work.
For data set [6] the following is noted: with inhibitors commonly given to humans; in words; cited from earlier work.

Regarding `O=c1ccc2ccc3occc3c2o1` [angelicin], the “first-pass effect inhibition (determined herein)” value (shortened to “first-pass effect inhibition”) in data set [1] (in words) is reported as “ineffective”.
Turning to `CC(C)=CCC/C(C)=C/COc1c2ccoc2cc2oc(=O)ccc12` [bergamottin], the “first-pass effect inhibition” value in data set [1] is recorded as “ineffective”.
For `COc1c2ccoc2cc2oc(=O)ccc12` [bergapten, 5-methoxypsoralen], the toxicity / phototoxicity result in data set [2] is recorded as “toxic, in particular, phototoxic”.
On to `CC[C@H]1OC(=O)[C@H](C)[C@@H](O[C@H]2C[C@@](C)(OC)[C@@H](O)[C@H](C)O2)[C@H](C)[C@@H](O[C@@H]2O[C@H](C)C[C@H](N(C)C)[C@H]2O)[C@](C)(O)C[C@@H](C)C(=O)[C@H](C)[C@@H](O)[C@]1(C)O` [erythromycin], for which the “inhibition of the first-pass effect” value in data set [3] was “identified as inhibitors of the first-pass effect”.
Consider `OC(Cn1cncn1)(Cn1cncn1)c1ccc(F)cc1F` [fluconazole], for which, in data set [3], the “inhibition of the first-pass effect” value is “identified as inhibitors of the first-pass effect”.
Take `CC(C)=CCOc1c2occc2cc2ccc(=O)oc12` [imperatorin]: the “first-pass activity according to Protocol C” value in data set [1] (2000 nM, in words) is “non-first-pass inhibiting”. Moreover, the “first-pass effect inhibition” value in data set [1] (in words) is “ineffective”.
As for `COc1c2ccoc2c(OC)c2oc(=O)ccc12` [isopimpinellin], the “first-pass effect inhibition” value in data set [1] (in words) is listed as “ineffective”.
Take `CCC(C)n1ncn(-c2ccc(N3CCN(c4ccc(OCC5COC(Cn6cncn6)(c6ccc(Cl)cc6Cl)O5)cc4)CC3)cc2)c1=O` (stereo not shown) [itraconazole]: the “inhibition of the first-pass effect” value in data set [3] is given as “identified as inhibitors of the first-pass effect”.
Take `CC(=O)N1CCN(c2ccc(OCC3COC(Cn4ccnc4)(c4ccc(Cl)cc4Cl)O3)cc2)CC1` (stereo not shown) [ketoconazole]: the “reduction of the dose of cyclosporin required” value in data set [4] is recorded as “approximately 85%”. The “inhibition of the first-pass effect” value in data set [3] was “inhibition of the first-pass effect of cyclosporin; also recorded: identified as inhibitors of the first-pass effect”.
On to `Clc1ccc(COC(Cn2ccnc2)c2ccc(Cl)cc2Cl)c(Cl)c1` (stereo not shown) [miconazole], for which the “inhibition of the first-pass effect” value in data set [3] was “identified as inhibitors of the first-pass effect”.
As for `O=c1ccc2cc3ccoc3cc2o1` [psoralen], the “first-pass effect inhibition” value in data set [1] (in words) is listed as “ineffective”. Moreover, the “inhibition of cytochrome P450” value in data set [5] was “do inhibit cvtochrome P450”. Besides, the toxicity / phototoxicity entry in data set [2] is reported as “toxic, in particular, phototoxic”.
As to `CC(C)c1nc(CN(C)C(=O)N[C@H](C(=O)N[C@@H](Cc2ccccc2)C[C@H](O)[C@H](Cc2ccccc2)NC(=O)OCc2cncs2)C(C)C)cs1` [ritonavir], the “inhibition of the first-pass effect” value in data set [3] is “identified as inhibitors of the first-pass effect”.
With `Cc1nnc2n1-c1ccc(Cl)cc1C(c1ccccc1Cl)=NC2` [triazolam], the “increase of bioavailability by inhibitors” value in data set [6] is “bioavailability is increased by inhibitors”.
Take `CO[C@H]1C[C@H](O[C@H]2[C@H](C)[C@@H](O[C@@H]3O[C@H](C)C[C@H](N(C)C)[C@H]3OC(C)=O)[C@@H](C)C[C@@]3(CO3)C(=O)[C@H](C)[C@@H](OC(C)=O)[C@@H](C)[C@@H](C)OC(=O)[C@@H]2C)O[C@@H](C)[C@@H]1OC(C)=O` [troleandomycin]: the “inhibition of the first-pass effect” value in data set [3] was “identified as inhibitors of the first-pass effect”.
On to `COc1c2occc2cc2ccc(=O)oc12` [xanthotoxin, 8-methoxypsoralen], for which, in data set [2], the toxicity / phototoxicity entry is “toxic, in particular, phototoxic”.
